# Experimental data reported in paper PMC8204911 (ACS Pharmacology & Translational Science, 2021).
# Residues, ends and D or L forms follow the SMILES beside them. *: point of attachment. Cbz = O=C(OCc1ccccc1)*; CH2F = FC*
# How the values were obtained:
# [1] = biological target: T1, caspase-3 (Homo sapiens, UniProt P42574); type: biochemical; conditions: read-out: Caspase-3 IC50
# T1 sequence (P42574 29-175 limits assumed): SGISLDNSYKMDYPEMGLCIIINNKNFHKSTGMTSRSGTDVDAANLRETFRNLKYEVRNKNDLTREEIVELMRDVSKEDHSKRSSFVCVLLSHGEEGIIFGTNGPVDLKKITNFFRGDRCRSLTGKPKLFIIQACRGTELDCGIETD
# T1 sequence (P42574 176-277 limits assumed): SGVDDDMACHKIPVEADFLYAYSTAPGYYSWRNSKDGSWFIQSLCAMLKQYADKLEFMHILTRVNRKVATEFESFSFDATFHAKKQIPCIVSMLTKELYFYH
# [2] = biological target: SARS-CoV-2 M^pro (Severe acute respiratory syndrome coronavirus 2, UniProt P0DTD1); conditions: at 20 μM, authors' previous screening; cited from earlier work
Compound,IC50 [1],inhibition of M^pro enzymatic activity [2]
COC(=O)C[C@H](NC(=O)[C@H](C)NC(=O)[C@@H](NC(=O)OCc1ccccc1)C(C)C)C(=O)CF [Z-VAD-FMK] (Cbz-Val-Ala-Asp(OMe)-CH2F),100 ± 40 nM,
CCC[C@H](NC(=O)[C@@H]1[C@H]2CCC[C@H]2CN1C(=O)[C@@H](NC(=O)[C@@H](NC(=O)c1cnccn1)C1CCCCC1)C(C)(C)C)C(=O)C(=O)NC1CC1 [telaprevir],,31%
